Consider 2 compounds from patent US7417156B2, “Orally active, antimalarial, anticancer, artemisinin-derived trioxane dimers” (Johns Hopkins University, priority 2002, dated 2008).

In one data set the test system is male CD-1 mice. The data set is described as follows: Acute toxicity study, single intraperitoneal injection. Conditions: for Mortality: single ip, male CD-1 mice. The protocol: Each compound was dissolved in DMSO (Mallinkrodt Lot No. V18H15) to achieve a concentration of 200 mg/ml, and then 3 parts sesame oil (Spectrum Lot No. M10656) was added to make a working concentration of 50 mg/ml for dose administration. Stability, strength, and uniformity of the test articles in the dose formulations were not determined for this study.
Forty-two CD1 male mice purchased from Charles River Laboratories (Wilmington, Mass.) were used in the study. Mice were quarantined for 3 days prior to initiation of the study.
Mice were weighed and randomized into treatment groups on the day prior to the first dose administration. Due to limitations in the amount of available test materials, fewer mice in 1000 mg/kg groups were treated than specified in the protocol. The numbers of animals intended to be used and actually used with each compound at each dose level are shown in the table below; the only differences are in the high-dose groups.
Surviving animals were sacrificed on Day 8 and blood was collected for clinical pathology evaluations.
Mortality and morbidity were checked twice daily on weekdays and once daily on the weekend, see Table VI. Animals were weighed daily and prior to necropsy.

The test system of data set [1] is P. vivax and P. falciparum. Conditions: 2099 cases of malaria, different dosage forms; cited from earlier work.
Data set [2] concerns Ehrlich ascites tumor (EAT) cells. Conditions: MTT assay; cited from earlier work.

With `CC1CCC2C(C)C(CC(COC(=O)c3cc[n+]([O-])cc3)CC3OC4OC5(C)CCC6C(C)CCC(C3C)C46OO5)OC3OC4(C)CCC1C32OO4` (stereo not shown) [Compound 13, bis-trioxane primary alcohol isonicotinate N-oxide], the Mortality entry is reported as “No death” with male CD-1 mice (125 mg/kg), “No death” with male CD-1 mice (250 mg/kg), 3/3 dead with male CD-1 mice (500 mg/kg) and 2/3 dead with male CD-1 mice (750 mg/kg). Moreover, in the data set on male CD-1 mice (intraperitoneally to mice as a single dose), the “toxicity relative to sodium artesunate in words” value was “less toxic”.

Consider `C[C@@H]1CC[C@H]2[C@@H](C)C(=O)O[C@@H]3O[C@]4(C)CC[C@@H]1[C@]32OO4` [Artemisinin], for which the clinical outcome in data set [1] was “clinical cure of all patients”. The concentration for half-maximal inhibition (IC50) in data set [2] was 29.8 µM.
